Reference: patent US9605026B2, “Hydrogen-bond surrogate peptides and peptidomimetics for p53 reactivation” (New York University, priority 2013, dated 2017)

Columns and labels:
p53 = p53 transcriptional activity (Cignal p53 luciferase reporter) in UMSCC47 cells; assay type: cell-based, human; conditions: UMSCC47 (HPV-positive), 10 μM, 24 hours, vs control (vehicle)
Text: (§1) FIG. 5A is an schematic illustration showing that CH1 has two distinct target sites. HIF1-α/p300 structures were used as guides to design helix mimetics that target site A and site B on the CH1 domain of p300. […] CH1iA (SEQ ID NO: 7) and CH1iB (SEQ ID NO: 8) were designed to mimic two helices from the C-terminal domain of HIF-1α. The peptides were locked into the helical conformation by the hydrogen bond surrogate method. FIG. 5C is a graph of p53 activity. UMSCC47 (left) and UMSCC74A (right) cells were co-transfected with a p53 Firefly luciferase reporter plasmid and a control Renilla luciferase plasmid. After 24 hours, cells were treated with control (vehicle), CH1iA (10 μM), or CH1iB (10 μM) for 24 hours. Firefly luciferase activity was normalized to Renilla luciferase activity to control for transfection efficiency. Data is normalized to control and presented as mean±SEM. *P<0.05, n=3. FIG. 5D is a western blot showing total and acetylated p53 levels. UMSCC47 (left) and UMSCC74A (right) cells were treated with control (vehicle), CH1iA (10 μM), or CH1iB (10 μM) for 24 hours. Cell lysates were immunoblotted with anti-p53 or anti-acetylated[K382]-p53 antibody. FIG. 5E is a pair of graphs of p300, p53, p21, miR-34a, and miR-200c expression. UMSCC47 (top panel) and UMSCC74A (bottom panel) cells were treated with control (vehicle), CH1iA (10 μM), or CH1iB (10 μM) for 24 hours. mRNA expression was determined using qPCR with validated TaqMan assays. Data is normalized to control cells and presented as mean±SEM. *P<0.01, control vs. CH1iB, n=3. FIG. 5F is a western blot showing HPV16 E6-p300 association. UMSCC47 cells were treated with control (vehicle), CH1iA (10 μM), or CH1iB (10 μM) for 24 hours. Cell lysates were extracted, immunoprecipitated with anti-p300 antibody, and immunoblotted with anti-E6 antibody. Cell lysates were immunoblotted with anti-E6 or anti-p300 antibody for input control. FIG. 5G is a set of graphs of cell proliferation. UMSCC47 (top left panel), UMSCC74A (top right panel), and IMR90 (human normal fibroblasts) (bottom panel) cells were treated with control (vehicle), CH1iA (10 μM), CH1iB (10 μM), cis-platinum (10 μM), CH1iA (10 μM) and cis-platinum (10 μM), or CH1iB (10 μM) and cis-platinum (10 μM) for 24, 48, or 72 hours. Data is normalized to Day 0 and presented as mean±SEM. *P<0.01, control vs. CH1iB or cis-platinum, **P<0.01 CH1iB or cis-platinum vs. CH1iB and cis-platinum, n=6.
FIG. 6A is a western blot showing total and acetylated p53 levels. […] UMSCC47 cells were treated with control (vehicle), CH1iB (10 μM), cis-platinum (10 μM), or CH1iB (10 μM) and cis-platinum (10 μM) for 24 hours. mRNA expression was determined using qPCR with validated TaqMan assays. […]

UMSCC47 cells = assay: Cell proliferation (MTT) in UMSCC47 cells; assay type: cell-based, human
Text: as §1
FIG. 7A is a graph of p53 transcriptional activity. UMSCC47 cells were co-transfected with a p53 Firefly luciferase reporter plasmid and a control Renilla luciferase plasmid. After 24 hours, cells were treated with control (vehicle) or CH1iB-mut (10 μM) for 24 hours. Firefly luciferase activity was normalized to Renilla luciferase activity to control for transfection efficiency. Data is presented as mean±SEM. *P<0.05, n=5. FIG. 7B is a graph of cell proliferation. UMSCC47 cells were treated with control (vehicle), CH1iB-mut (10 μM), cis-platinum (10 μM), or CH1iB-mut (10 μM) and cis-platinum (10 μM) for 24 or 48 hours. Data is normalized to Day 0 and presented as mean±SEM. *P<0.01, control or CH1iB-mut vs. cis-platinum or cis-platinum+CH1iB-mut, n=6.
Cell proliferation was assessed using the MTT reagent (Roche Molecular Biochemicals, Nutley, N.J.) to detect metabolic active cells. Absorbance was measured at 570 nm in the Spectra Max 190 ELISA reader (Molecular Devices, Sunnyvale, Calif.) after overnight incubation. […]

Substance: XELA*RAADQ-NH2 (ELXRAADQ; HBS: 4-pentenoic acid, N-allylalanine; C-terminal amide; CH1iB-MUT)
- p53 activity increase (p53): 14%
- effect on anti-proliferative efficacy of cis-platinum (combination) (UMSCC47 cells; UMSCC47, 10 μM with cis-platinum 10 μM): no effect
- cell proliferation, single-agent (UMSCC47 cells; UMSCC47, 10 μM, 24-72 hours): no effect
